From the CheMixHub drug solubility set

Experiment: xn = mol fraction of the nth substance listed, in the solute-free solvent

COc1cc2c(cc1OC)-c1cc3ccc(OC)c(OC)c3c[n+]1CC2.[Cl-] + OCCO + O
solubility (g/100 g solution)
Conditions	283.15 K	288.15 K	293.15 K	298.15 K	303.15 K	308.15 K	313.15 K	318.15 K	323.15 K	328.15 K
x2 = 0.03125	1.2	1.46	1.83	2.28	2.8	3.39	4.08	4.86	5.75	6.75
x2 = 0.06767	1.25	1.51	1.89	2.35	2.88	3.48	4.19	4.98	5.89	6.91
x2 = 0.1107	1.33	1.6	1.99	2.47	3.02	3.65	4.37	5.2	6.13	7.19
x2 = 0.1622	1.41	1.69	2.09	2.58	3.15	3.8	4.55	5.4	6.36	7.45
x2 = 0.225	1.47	1.78	2.23	2.74	3.31	3.98	4.71	5.6	6.54	7.6
x2 = 0.3034	1.49	1.82	2.23	2.74	3.27	3.96	4.69	5.57	6.5	7.55
x2 = 0.4038	1.45	1.79	2.16	2.64	3.18	3.77	4.46	5.28	6.2	7.26
x2 = 0.5373	1.36	1.65	2.01	2.43	2.92	3.5	4.22	4.93	5.81	6.75
x2 = 0.7232	1.23	1.46	1.79	2.17	2.63	3.15	3.76	4.44	5.21	6.07
